Data published in patent US20230348401A1, “Inhibitors of Glucose-6-phosphate Dehydrogenase and Uses Thereof” (The Trustees of Princeton University, priority 2020, published 2023).
Like-named read-outs stand apart in the source and are kept apart here.

Target: G6PD (Homo sapiens, UniProt P11413)
Assay: G6PD enzymatic activity by diaphorase-coupled assay
[1] = Normalized in vitro IC50, Table 1A, diaphorase-coupled biochemical assay, normalization to an intraplate control

Sequence of G6PD (P11413 28-515): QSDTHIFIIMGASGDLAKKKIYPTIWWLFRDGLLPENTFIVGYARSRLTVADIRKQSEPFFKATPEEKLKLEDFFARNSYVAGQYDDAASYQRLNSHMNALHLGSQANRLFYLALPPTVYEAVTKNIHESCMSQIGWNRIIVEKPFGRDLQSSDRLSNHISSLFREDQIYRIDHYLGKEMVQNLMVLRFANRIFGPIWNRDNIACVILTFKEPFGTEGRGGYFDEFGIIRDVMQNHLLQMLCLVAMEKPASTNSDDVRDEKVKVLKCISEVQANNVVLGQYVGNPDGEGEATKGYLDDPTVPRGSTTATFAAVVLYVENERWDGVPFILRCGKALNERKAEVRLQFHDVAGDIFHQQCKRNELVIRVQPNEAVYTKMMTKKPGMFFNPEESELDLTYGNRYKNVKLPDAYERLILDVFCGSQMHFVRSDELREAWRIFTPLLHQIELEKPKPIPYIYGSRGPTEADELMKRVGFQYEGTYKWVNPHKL

Compound | IC50 [1] [µM] | IC50 [µM]
O=C1CCCCc2nc(Nc3ccc(F)cc3)ncc21 [Compound 0001] | 1 to 1000 | 
O=C1CCCCc2nc(Nc3ccc(Cl)cc3)ncc21 [Compound 0002] | 1 to 1000 | 
O=C1CCCCc2nc(Nc3ccc(Br)cc3)ncc21 [Compound 0003] | 1 to 1000 | 
O=C1CCCCc2nc(Nc3ccc(I)cc3)ncc21 [Compound 0004] | 1 to 1000 | 
Cc1ccc(Nc2ncc3c(n2)CCCCC3=O)cc1 [Compound 0005] | 1 to 1000 | 
CCc1ccc(Nc2ncc3c(n2)CCCCC3=O)cc1 [Compound 0006] | 1 to 1000 | 
CC(C)c1ccc(Nc2ncc3c(n2)CCCCC3=O)cc1 [Compound 0007] | 1 to 1000 | 
COc1ccc(Nc2ncc3c(n2)CCCCC3=O)cc1 [Compound 0008] | 1 to 1000 | 
O=C1CCCCc2nc(Nc3ccc(SC(F)(F)F)cc3)ncc21 [Compound 0009] | 1 to 1000 | 
O=C1CCCCc2nc(Nc3ccc(C(F)(F)F)cc3)ncc21 [Compound 0010] | 1 to 1000 | 
O=C1CCCCc2nc(Nc3ccc([N+](=O)[O-])cc3)ncc21 [Compound 0011] | 1 to 1000 | 
N#Cc1ccc(Nc2ncc3c(n2)CCCCC3=O)cc1 [Compound 0012] | 1 to 1000 | 
CC(=O)Nc1ccc(Nc2ncc3c(n2)CCCCC3=O)cc1 [Compound 0013] | > 1000 | 
O=C1CCCCc2nc(Nc3cc(C(F)(F)F)cc(C(F)(F)F)c3)ncc21 [Compound 0014] |  | 1 to 1000
O=C1CCCCc2nc(Nc3ccccc3F)ncc21 [Compound 0015] | 1 to 1000 | 
O=C1CCCCc2nc(Nc3ccccc3Cl)ncc21 [Compound 0016] | 1 to 1000 | 
O=C1CCCCc2nc(Nc3ccc(F)c(Cl)c3)ncc21 [Compound 0017] |  | < 1
N#Cc1cc(Nc2ncc3c(n2)CCCCC3=O)ccc1Cl [Compound 0018] |  | 1 to 1000
Cc1ccc(Nc2ncc3c(n2)CCCCC3=O)cc1C#N [Compound 0019] |  | < 1
COc1ccc(Nc2ncc3c(n2)CCCCC3=O)cc1C#N [Compound 0020] | < 1 | 
O=C1CCCCc2nc(Nc3ccccc3)ncc21 [Compound 0021] | 1 to 1000 | 
COC(=O)c1ccc(Nc2ncc3c(n2)CCCCC3=O)cc1 [Compound 0022] | 1 to 1000 | 
CC1(C)OB(c2cccc(Nc3ncc4c(n3)CCCCC4=O)c2)OC1(C)C [Compound 0023] |  | 1 to 1000

Compound | IC50 [1] [µM] | IC50 [µM]
N#CCc1cccc(Nc2ncc3c(n2)CCCCC3=O)c1 [Compound 0024] | 1 to 1000 | 
O=C1CCCCc2nc(Nc3ccc([N+](=O)[O-])c(Cl)c3)ncc21 [Compound 0025] |  | 1 to 1000
N#CCc1ccc(Nc2ncc3c(n2)CCCCC3=O)cc1 [Compound 0026] | 1 to 1000 | 
O=C1CCCCc2nc(Nc3cc(Cl)cc(C(F)(F)F)c3)ncc21 [Compound 0027] |  | 1 to 1000
O=C1CCCCc2nc(Nc3cccc(Cl)c3)ncc21 [Compound 0028] | < 1 | 
N#Cc1cc(Nc2ncc3c(n2)CCCCC3(F)F)cs1 [Compound 0031] |  | 1 to 1000
O=C1CCCCc2nc(Nc3ccc(B(O)O)cc3)ncc21 [Compound 0032] | 1 to 1000 | 
O=C1CCCCc2nc(Nc3csc(-c4nnn[nH]4)c3)ncc21 [Compound 0033] |  | 1 to 1000
N#CC(C#N)=C1CCCCc2nc(Nc3csc(C#N)c3)ncc21 [Compound 0034] |  | < 1
N#Cc1cc(Nc2ncc3c(n2)CCCCC3=O)cc(OCc2ccccc2)c1 [Compound 0035] |  | < 1
O=C1CCCCc2nc(Nc3ccc(-c4nnn[nH]4)cc3)ncc21 [Compound 0036] |  | < 1
N#Cc1cc(Nc2ncc3c(n2)C2CCC(C2)C3=O)cs1 (stereo not shown) [Compound 0040] |  | 1 to 1000
O=C(c1ccccc1)c1cc(Cl)cc(Nc2ncc3c(n2)CCCCC3=O)c1 [Compound 0042] | 1 to 1000 | 
Cc1ccc(C(=O)c2cc(Cl)cc(Nc3ncc4c(n3)CCCCC4=O)c2)cc1 [Compound 0043] |  | > 1000
NS(=O)(=O)c1ccc(Nc2ncc3c(n2)CCCCC3=O)cc1 [Compound 0044] | 1 to 1000 | 
N#Cc1cc(Nc2ncc3c(n2)CCCCC3=O)cc(OCc2ccc(Cl)cc2)c1 [Compound 0045] |  | 1 to 1000
N#Cc1cc(Nc2ncc3c(n2)CCCCC3=O)cc(OCc2cccc(Cl)c2)c1 [Compound 0046] |  | < 1
N#Cc1cc(Nc2ncc3c(n2)CCCCC3=O)cc(OCc2ccccc2Cl)c1 [Compound 0047] |  | < 1
COc1ccc(COc2cc(C#N)cc(Nc3ncc4c(n3)CCCCC4=O)c2)cc1 [Compound 0048] |  | < 1
N#Cc1cc(Nc2ncc3c(n2)CCCCC3=O)cc(OCc2ccsc2)c1 [Compound 0049] |  | < 1
N#Cc1cc(Nc2ncc3c(n2)CCCCC3=O)cc(OCc2c(F)c(F)c(F)c(F)c2F)c1 [Compound 0050] |  | < 1
N#Cc1cc(Nc2ncc3c(n2)CCCCC3=O)c[nH]1 [Compound 0051] |  | < 1
N#Cc1cc(Nc2ncc3c(n2)CCCc2cnoc2-3)cs1 [Compound 0052] |  | 1 to 1000

Compound | IC50 [1] [µM] | IC50 [µM]
N#Cc1cc(Nc2ncc3c(n2)CCCC/C3=N\O)cs1 [Compound 0053] |  | > 1000
N#Cc1cc(Nc2ncc3c(n2)CCCC/C3=N/O)cs1 [Compound 0054] |  | > 1000
N#C/C=C1\CCCCc2nc(Nc3csc(C#N)c3)ncc21 [Compound 0055] |  | 1 to 1000
N#C/C=C1/CCCCc2nc(Nc3csc(C#N)c3)ncc21 [Compound 0056] |  | 1 to 1000
Cn1cc(Nc2ncc3c(n2)CCCCC3=O)cc1C#N [Compound 0057] |  | 1 to 1000
N#Cc1cc(Nc2ncc3c(n2)CCCCC3=O)cn1Cc1ccccc1 [Compound 0058] |  | 1 to 1000
CCOc1cc(C#N)cc(Nc2ncc3c(n2)CCCCC3=O)c1 [Compound 0059] |  | < 1
CCCOc1cc(C#N)cc(Nc2ncc3c(n2)CCCCC3=O)c1 [Compound 0060] |  | < 1
CC(C)Oc1cc(C#N)cc(Nc2ncc3c(n2)CCCCC3=O)c1 [Compound 0061] |  | < 1
C#CCOc1cc(C#N)cc(Nc2ncc3c(n2)CCCCC3=O)c1 [Compound 0062] |  | < 1
N#Cc1cc(Nc2ncc3c(n2)CCCCC3=O)cc(OC2CCCCC2)c1 [Compound 0063] |  | < 1
N#Cc1cc(Nc2ncc3c(n2)CCCCC3=O)cs1 [Compound 0065] | < 1 | 
N#Cc1cc(Nc2cc3c(cn2)C(=O)CCCC3)cs1 [Compound 0066] |  | 1 to 1000
N#Cc1cc(Nc2ncc3c(n2)CCCc2cn[nH]c2-3)cs1 [Compound 0067] |  | 1 to 1000
N#Cc1scc(Nc2ncc3c(n2)CCCCC3=O)c1-n1cccc1 [Compound 0071] |  | < 1
N#Cc1cc(Nc2ncc3c(n2)CCCCC3=O)cc(OCC2CCCCC2)c1 [Compound 0072] |  | 1 to 1000
N#Cc1cc(Nc2ncc3c(n2)CCCCC3=O)cc(OCc2ccc(Br)cc2)c1 [Compound 0073] |  | 1 to 1000
Cc1ccc(COc2cc(C#N)cc(Nc3ncc4c(n3)CCCCC4=O)c2)cc1 [Compound 0074] |  | < 1
N#Cc1cc(Nc2ncc3c(n2)CCCCC3=O)cc(OCc2ccc3c(c2)OCO3)c1 [Compound 0075] |  | < 1
N#Cc1cc(Nc2ncc3c(n2)CCCCC3=O)cc(OCc2ccc(F)cc2)c1 [Compound 0076] |  | < 1
N#Cc1cc(Nc2ncc3c(n2)CCCCC3=O)cc(OCc2ccc(OC(F)(F)F)cc2)c1 [Compound 0077] |  | 1 to 1000
N#Cc1cc(Nc2ncc3c(n2)CCCCC3=O)cc(OCc2ccncc2)c1 [Compound 0078] |  | < 1
N#Cc1cc(Nc2ncc3c(n2)CCCCC3=O)cc(OCc2cccc3ccccc23)c1 [Compound 0079] |  | < 1

Compound | IC50 [1] [µM] | IC50 [µM]
N#Cc1cc(Nc2ncc3c(n2)CCCCC3=O)cc(OCc2ccc3ccccc3c2)c1 [Compound 0080] |  | 1 to 1000
N#Cc1cc(Nc2ncc3c(n2)CCCCC3=O)cc(OCc2c[nH]c3ccccc23)c1 [Compound 0081] |  | > 1000
N#Cc1cc(Nc2ncc3c(n2)CCCCC3=O)cc(OCc2ccc(CO)cc2)c1 [Compound 0082] |  | < 1
N#Cc1cc(Nc2ncc3c(n2)CCCCC3=O)cc(OCc2cccc(CO)c2)c1 [Compound 0083] |  | < 1
N#Cc1cc(Nc2ncc3c(n2)CCCCC3=O)cc(Oc2ccccc2)c1 [Compound 0084] |  | 1 to 1000
N#Cc1cc(Nc2ncc3c(n2)CCCCC3=O)cc(OC(=O)c2ccccc2)c1 [Compound 0085] |  | 1 to 1000
COc1ccc(Oc2cc(C#N)cc(Nc3ncc4c(n3)CCCCC4=O)c2)cc1 [Compound 0086] | 1 to 1000 | 
N#Cc1cccc(Nc2ncc3c(n2)CCCCC3=O)c1F [Compound 0087] |  | < 1
N#Cc1ccc(F)c(Nc2ncc3c(n2)CCCCC3=O)c1 [Compound 0088] |  | 1 to 1000
CCCCOc1cc(C#N)cc(Nc2ncc3c(n2)CCCCC3=O)c1 [Compound 0089] |  | 1 to 1000
CCOCCOc1cc(C#N)cc(Nc2ncc3c(n2)CCCCC3=O)c1 [Compound 0090] |  | 1 to 1000
CCCCCCCCCCCCCCOc1cc(C#N)cc(Nc2ncc3c(n2)CCCCC3=O)c1 [Compound 0092] |  | > 1000
CC1(C)[C@H]2CCC1(C)[C@@H](Oc1cc(C#N)cc(Nc3ncc4c(n3)CCCCC4=O)c1)C2 [Compound 0093] |  | > 1000
C#CCCCOc1cc(C#N)cc(Nc2ncc3c(n2)CCCCC3=O)c1 [Compound 0094] |  | < 1
C#CCC1(COc2cc(C#N)cc(Nc3ncc4c(n3)CCCCC4=O)c2)N=N1 [Compound 0095] |  | > 1000
COC(=O)c1ccc(COc2cc(C#N)cc(Nc3ncc4c(n3)CCCCC4=O)c2)cc1 [Compound 0096] |  | > 1000
N#Cc1cc(Nc2ncc3c(n2)CCCCC3=O)cc(OCC2CC2)c1 [Compound 0097] |  | < 1
N#Cc1cc(Nc2ncc3c(n2)CCCCC3=O)cc(OCC2CCC2)c1 [Compound 0098] |  | 1 to 1000
N#Cc1cc(Nc2ncc3c(n2)CCCCC3=O)cc(OCC2CCCC2)c1 [Compound 0099] |  | 1 to 1000
N#Cc1cc(Nc2ncc3c(n2)CCCCC3=O)cc(OC(c2ccccc2)c2ccccc2)c1 [Compound 0100] |  | 1 to 1000
CCC(CC)Oc1cc(C#N)cc(Nc2ncc3c(n2)CCCCC3=O)c1 [Compound 0101] |  | 1 to 1000
N#Cc1cc(Nc2ncc3c(n2)CCCCC3=O)cc(OCCc2ccccc2)c1 [Compound 0103] |  | < 1
